# Experiments:
# Tubulin (Homo sapiens) [1] = molecular target: T1, Tubulin (Homo sapiens) (UniProt P68371+Q9H4B7+P0DPH7+P68366+Q13509+Q71U36+P04350+Q3ZCM7+P07437+P68363+Q9BQE3+Q6PEY2+Q13885+Q9BVA1+Q9BUF5); assay: Inhibition of tubulin polymerization at 40 uM; type: protein-complex assay
# Tubulin = assay: Inhibition of tubulin polymerization; type: protein-complex assay, Homo sapiens
# Tubulin (Homo sapiens) [2] = molecular target: T1, Tubulin (Homo sapiens); assay: Inhibition of tubulin polymerization at 10 uM; type: protein-complex assay
# Tubulin (Homo sapiens) [3] = molecular target: T1, Tubulin (Homo sapiens); assay: Inhibition of tubulin polymerization at 30 uM; type: protein-complex assay
# Tubulin (Homo sapiens) [4] = molecular target: T1, Tubulin (Homo sapiens); assay: Inhibition of tubulin polymerization at 20 uM; type: protein-complex assay
SMILES,inhibition (Tubulin (Homo sapiens) [1]) [%],further results
COc1cc2cc(OC)c1OCCOCCOc1ccc(cc1)[C@@H]1OC(C)(C)O[C@H]21,0,
COc1ccc([C@@H]2OCO[C@H]2c2cc(OC)c(OC)c(OC)c2)cc1O,,IC50 (Tubulin): 4 µM
COc1cc2cc(OC)c1OCCCCCCn1ccc3cc(ccc31)/C=C\2,,inhibition (Tubulin (Homo sapiens) [2]): 19%
COc1ccc([C@H]2OCO[C@@H]2c2cc(OC)c(OC)c(OC)c2)cc1O,,IC50 (Tubulin): > 50 µM
COc1cc2cc(OC)c1OCCOCCOc1ccc(cc1OC(C)=O)[C@@H](OC(C)=O)[C@H]2OC(C)=O (relative stereo),0,
COc1cc2cc(OC)c1OCCOCCOc1ccc(cc1)[C@@H](OC(C)=O)[C@H]2OC(C)=O (relative stereo),0,
COc1cc2cc(OC)c1OCCOCCOc1ccc(cc1)/C=C\2,,inhibition (Tubulin (Homo sapiens) [3]): 0%
COc1cc2cc(OC)c1OCCCCCCOc1ccc(cc1O)/C=C\2,0,
COc1cc2cc(OC)c1OCCOCCOc1ccc(cc1O)[C@@H](O)[C@H]2O (relative stereo),11,
COc1cc2cc(OC)c1OCCCCCCn1ccc3cc(ccc31)[C@@H](O)[C@H]2O,,inhibition (Tubulin (Homo sapiens) [4]): 11%
COc1cc2cc(OC)c1OCCOCCOc1ccc(cc1OC(C)=O)[C@H](OC(C)=O)[C@H]2OC(C)=O (relative stereo),0,
COc1cc2cc(OC)c1OCCCCCCn1ccc3cc(ccc31)[C@H](OC(C)=O)[C@H]2OC(C)=O,,inhibition (Tubulin (Homo sapiens) [4]): 8%
COc1cc2cc(OC)c1OCCOCCOc1ccc(cc1)[C@@H](O)[C@H]2O (relative stereo),0,
COc1cc2cc(OC)c1OCCCCCCOc1ccc(cc1)[C@H](O)[C@H]2O (relative stereo),4,
COc1ccc([C@@H](O)[C@H](O)c2cc(OC)c(OC)c(OC)c2)cc1O,,IC50 (Tubulin): > 40 µM
COc1cc2cc(OC)c1OCCCCCCOc1ccc(cc1)[C@H](OC(C)=O)[C@H]2OC(C)=O,0,
COc1cc2cc(OC)c1OCCOCCOc1ccc(cc1)[C@H](O)[C@H]2O,0,
COc1ccc(/C=C\c2cc(OC)c(OC)c(OC)c2)cc1,,IC50 (Tubulin): 2.2 µM
COc1cc2cc(OC)c1OCCCCCCOc1ccc(cc1)/C=C\2,60,
COc1cc2cc(OC)c1OCCCCCCOc1ccc(cc1OC(C)=O)[C@H](OC(C)=O)[C@H]2OC(C)=O (relative stereo),2,
COc1ccc([C@H](O)[C@@H](O)c2cc(OC)c(OC)c(OC)c2)cc1O,,IC50 (Tubulin): 22 µM
COc1cc2cc(OC)c1OCCOCCOc1ccc(cc1O)[C@H](O)[C@H]2O (relative stereo),1,
COc1cc2cc(OC)c1OCCCCCCn1ccc3cc(ccc31)[C@@H](OC(C)=O)[C@H]2OC(C)=O,,inhibition (Tubulin (Homo sapiens) [4]): 9%
COc1cc2cc(OC)c1OCCOCCOc1ccc(cc1)[C@H](OC(C)=O)[C@H]2OC(C)=O (relative stereo),0,
COc1cc2cc(OC)c1OCCCCCCn1ccc3cc(ccc31)[C@H](O)[C@H]2O,,inhibition (Tubulin (Homo sapiens) [4]): 9%
COc1ccc(C[C@@H](O)c2cc(OC)c(OC)c(OC)c2)cc1O [COMBRETASTATIN],,IC50 (Tubulin): 5 µM
